The source of these data is patent US20230150986A1, “ANTAGONISTS OF THE MUSCARINIC ACETYLCHOLINE RECEPTOR M4” (Vanderbilt University, priority 2019, published 2023).

SMILES strings stand for the structures. pIC50: −log10 of the molar value.

In this test the target is T1, Human M4 (Homo sapiens, UniProt P08173).
T1 construct: Human or rat M4 cDNA, along with the chimeric G protein Gq,5, were transfected into Chinese hamster ovary (CHO-K1) cells; expressed in transfected cells; host or cells: CHO-K1 (M4/Gqi5/CHO)
T1 sequence (P08173 1-479): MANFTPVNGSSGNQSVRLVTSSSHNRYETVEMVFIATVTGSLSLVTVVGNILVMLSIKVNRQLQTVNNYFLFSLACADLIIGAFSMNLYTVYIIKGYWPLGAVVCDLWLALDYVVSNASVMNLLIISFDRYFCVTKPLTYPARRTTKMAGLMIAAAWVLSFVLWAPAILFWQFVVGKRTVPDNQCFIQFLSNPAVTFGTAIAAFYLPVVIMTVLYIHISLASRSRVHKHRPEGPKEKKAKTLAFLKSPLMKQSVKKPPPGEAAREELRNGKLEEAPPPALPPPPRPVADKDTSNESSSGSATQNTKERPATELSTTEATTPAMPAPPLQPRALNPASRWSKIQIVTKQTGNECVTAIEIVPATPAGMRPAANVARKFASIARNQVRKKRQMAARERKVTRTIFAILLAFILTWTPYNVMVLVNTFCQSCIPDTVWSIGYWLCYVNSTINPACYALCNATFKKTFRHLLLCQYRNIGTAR
Put plainly: mAChR M4 cell-based functional assay (calcium flux, decrease of EC80 acetylcholine response). The note with it: for Human M4 Emin: % ACh maximum at 30 μM; for pIC50: CHO-K1 cells with human M4 and Gqi5, EC80 acetylcholine. On the procedure:
Human or rat M4 cDNA, along with the chimeric G protein Gq,5, were transfected into Chinese hamster ovary (CHO-K1) cells purchased from the American Type Culture Collection using Lipofectamine2000. M4/Gqi5/CHO cells were grown in Ham's F-12 medium containing 10% heat-inactivated fetal bovine serum (FBS), 20 mM HEPES, 500 μg/mL G^418 sulfate, and 200 μg/mL Hygromycin B.
For high throughput measurement of agonist-evoked increases in intracellular calcium, CHO-K1 cells stably expressing muscarinic receptors were plated in growth medium lacking G418 and hygromycin at 15,000 cells/20 μL/well in Greiner 384-well black-walled, tissue culture (TC)-treated, clear-bottom plates (VWR). Cells were incubated overnight at 37° C. and 5% CO2. The next day, cells were washed using an ELX 405 (BioTek) with assay buffer; the final volume was then aspirated to 20 μL. Next, 20 μL of a 2.3 μM stock of Fluo-4/acetoxymethyl ester (Invitrogen, Carlsbad, Calif.), prepared as a 2.3 mM stock in DMSO and mixed in a 1:1 ratio with 10% (w/v) Pluronic F-127 and diluted in assay buffer, was added to the wells and the cell plates were incubated for 50 min at 37° C. and 5% CO2. Dye was removed by washing with the ELX 405 and the final volume was aspirated to 20 μL. Compound master plates were formatted in a 10 point concentration-response curve (CRC) format (1:3 dilutions) in 100% DMSO with a starting concentration of 10 or 1 mM using a BRAVO liquid handler (Agilent). Test compound CRCs were then transferred to daughter plates (240 nL) using the Echo acoustic plate reformatter (Labcyte, Sunnyvale, Calif.) and then diluted into assay buffer (40 μL) to a 2× stock using a Thermo Fisher Combi (Thermo Fisher Scientific, Waltham, Mass.).
Calcium flux was measured using the Functional Drug Screening System (FDSS) 6000 or 7000 (Hamamatsu Corporation, Tokyo, Japan) as an increase in the fluorescent static ratio. Compounds were applied to cells (20 μL, 2×) using the automated system of the FDSS at 2 seconds into the protocol and the data were collected at 1 Hz. At 143 s, 10 μL of an EC20 concentration of the muscarinic receptor agonist acetylcholine was added (5×), followed by the addition of […] of an EC80 concentration of acetylcholine at the 268 s time point (5×). Agonist activity was analyzed as a concentration-dependent increase in calcium mobilization upon compound addition. Positive allosteric modulator activity was analyzed as a concentration-dependent increase in the EC2o acetylcholine response. Antagonist activity was analyzed as a concentration-dependent decrease in the EC80 acetylcholine response; for the purposes of the tables herein, an IC50 (inhibitory concentration 50) was calculated as a concentration-dependent decrease of the response elicited by an EC80 concentration of acetylcholine. Concentration-response curves were generated using a four-parameter logistical equation in XLFit curve fitting software (IDBS, Bridgewater, N.J.) for Excel (Microsoft, Redmond, Wash.) or Prism (GraphPad Software, Inc., San Diego, Calif.) or the Dotmatics software platform (Dotmatics, Bishop's Stortford, UK).
Compounds were synthesized as described above. Activity (IC50 and Emin) was determined in the mAChR M4 cell-based functional assay as described above and the data are shown in Table 2.
On the technique in general: A change in cytosolic calcium serves as a functional read-out for many receptors and channels.

One may read the pIC50 as the IC50 on a negative log10 scale, so that one unit is a factor of ten. Turning to `Fc1cc(F)c(F)c(-c2ccc(N[C@H]3C[C@@H]4CN(Cc5cc6n(n5)CCOC6)C[C@@H]4C3)nn2)c1` [Compound 36, (3aR,5s,6aS)-2-((6,7-dihydro-4H-pyrazolo[5,1-c][1,4]oxazin-2-yl)methyl)-N-(6-(2,3,5-trifluorophenyl)pyridazin-3-yl)octahydrocyclopenta[c]pyrrol-5-amine], the “Human M4 Emin” value was 3% and the pIC50 is 8.65.
Consider `Fc1cc(F)c(F)c(-c2ccc(N[C@H]3C[C@@H]4CN(Cc5ccc6c(c5)OC(F)(F)O6)C[C@@H]4C3)nn2)c1` [Compound 37, (3aR,5s,6aS)-2-((2,2-difluorobenzo[d][1,3]dioxol-5-yl)methyl)-N-(6-(2,3,5-trifluorophenyl)pyridazin-3-yl)octahydrocyclopenta[c]pyrrol-5-amine], for which the “Human M4 Emin” value is 11% and the pIC50 is 6.00.
For the compound `Fc1cc(F)c(F)c(-c2ccc(N[C@H]3C[C@@H]4CN(Cc5ccnnc5)C[C@@H]4C3)nn2)c1` [Compound 38, (3aR,5s,6aS)-2-(pyridazin-4-ylmethyl)-N-(6-(2,3,5-trifluorophenyl)pyridazin-3-yl)octahydrocyclopenta[c]pyrrol-5-amine], the “Human M4 Emin” value turned out to be 16% and the pIC50 was 5.28.
Turning to `[2H]C([2H])([C@H]1COCCO1)N1C[C@H]2C[C@H](Nc3ccc(-c4cc(F)cc(F)c4F)nn3)C[C@H]2C1` [Compound 39, (3aR,5s,6aS)-2-(((S)-1,4-dioxan-2-yl)methyl-d2)-N-(6-(2,3,5-trifluorophenyl)pyridazin-3-yl)octahydrocyclopenta[c]pyrrol-5-amine], the “Human M4 Emin” value turned out to be 3% and the pIC50 was 9.25.
Turning to `[2H]C([2H])([C@H]1CCCCO1)N1C[C@H]2C[C@H](Nc3ccc(-c4cc(F)cc(F)c4F)nn3)C[C@H]2C1` [Compound 40, (3aR,5s,6aS)-2-(((R)-tetrahydro-2H-pyran-2-yl)methyl-d2)-N-(6-(2,3,5-trifluorophenyl)pyridazin-3-yl)octahydrocyclopenta[c]pyrrol-5-amine], the “Human M4 Emin” value is 3% and the pIC50 was 8.83.
As for `[2H]C([2H])([C@H]1CCOC1)N1C[C@H]2C[C@H](Nc3ccc(-c4cc(F)cc(F)c4F)nn3)C[C@H]2C1` [Compound 41, (3aR,5s,6aS)-2-(((R)-tetrahydrofuran-3-yl)methyl-d2)-N-(6-(2,3,5-trifluorophenyl)pyridazin-3-yl)octahydrocyclopenta[c]pyrrol-5-amine], the “Human M4 Emin” value worked out at 3% and the pIC50 was 7.19.
The like results for `[2H]C([2H])([C@@H]1COCCO1)N1C[C@H]2C[C@H](Nc3ccc(-c4cc(F)cc(F)c4F)nn3)C[C@H]2C1` [Compound 42, (3aR,5s,6aS)-2-(((R)-1,4-dioxan-2-yl)methyl-d2)-N-(6-(2,3,5-trifluorophenyl)pyridazin-3-yl)octahydrocyclopenta[c]pyrrol-5-amine] were, in that order, 3% and 7.46.
The like results for `[2H]C([2H])([C@@H]1CCCCO1)N1C[C@H]2C[C@H](Nc3ccc(-c4cc(F)cc(F)c4F)nn3)C[C@H]2C1` [Compound 43, (3aR,5s,6aS)-2-(((S)-tetrahydro-2H-pyran-2-yl)methyl-d2)-N-(6-(2,3,5-trifluorophenyl)pyridazin-3-yl)octahydrocyclopenta[c]pyrrol-5-amine] were, in that order, 4% and 9.02.
For `[2H]C([2H])([C@@H]1CCOC1)N1C[C@H]2C[C@H](Nc3ccc(-c4cc(F)cc(F)c4F)nn3)C[C@H]2C1` [Compound 44, (3aR,5s,6aS)-2-(((S)-tetrahydrofuran-3-yl)methyl-d2)-N-(6-(2,3,5-trifluorophenyl)pyridazin-3-yl)octahydrocyclopenta[c]pyrrol-5-amine], in that order: 2% and 7.50.
For the compound `[2H]C(C)(N1C[C@H]2C[C@H](Nc3ccc(-c4cc(F)cc(F)c4F)nn3)C[C@H]2C1)C1(C)CCOCC1` (stereo partly drawn) [Compound 45, (3aR,5s,6aS)-2-(1-(4-methyltetrahydro-2H-pyran-4-yl)ethyl-1-d)-N-(6-(2,3,5-trifluorophenyl)pyridazin-3-yl)octahydrocyclopenta[c]pyrrol-5-amine], the “Human M4 Emin” value was determined as 1% and the negative logarithm of the IC50 (pIC50) was 6.85.
In the case of `CC(N1C[C@H]2C[C@H](Nc3ccc(-c4cc(F)cc(F)c4F)nn3)C[C@H]2C1)C1(C)CCOCC1` (stereo partly drawn) [Compound 46, (3aR,5s,6aS)-2-(1-(4-methyltetrahydro-2H-pyran-4-yl)ethyl)-N-(6-(2,3,5-trifluorophenyl)pyridazin-3-yl)octahydrocyclopenta[c]pyrrol-5-amine], the “Human M4 Emin” value is 2% and the pIC50 is 7.23.
For `[2H]C([2H])(N1C[C@H]2C[C@H](Nc3ccc(-c4cc(F)cc(F)c4F)nn3)C[C@H]2C1)C1(OC)CCCOC1` (stereo partly drawn) [Compound 48, (3aR,5s,6aS)-2-((3-methoxytetrahydro-2H-pyran-3-yl)methyl-d2)-N-(6-(2,3,5-trifluorophenyl)pyridazin-3-yl)octahydrocyclopenta[c]pyrrol-5-amine], in that order: 2% and 6.74.
For `[2H]C([2H])(N1C[C@H]2C[C@H](Nc3ccc(-c4cc(F)cc(F)c4F)nn3)C[C@H]2C1)C1(C)CCCOC1` (stereo partly drawn) [Compound 49, (3aR,5s,6aS)-2-((3-methyltetrahydro-2H-pyran-3-yl)methyl-d2)-N-(6-(2,3,5-trifluorophenyl)pyridazin-3-yl)octahydrocyclopenta[c]pyrrol-5-amine], in that order: 2% and 7.59.
Regarding `[2H]C([2H])(N1C[C@H]2C[C@H](Nc3ccc(-c4cc(F)cc(F)c4F)nn3)C[C@H]2C1)C1(C)CCCCO1` (stereo partly drawn) [Compound 50, (3aR,5s,6aS)-2-((2-methyltetrahydro-2H-pyran-2-yl)methyl-d2)-N-(6-(2,3,5-trifluorophenyl)pyridazin-3-yl)octahydrocyclopenta[c]pyrrol-5-amine], the “Human M4 Emin” value was 2% and the negative logarithm of the IC50 (pIC50) is 8.16.
For the compound `CC(C)(C)CCN1C[C@H]2C[C@H](Nc3ccc(-c4cc(F)cc(F)c4F)nn3)C[C@H]2C1` [Compound 51, (3aR,5s,6aS)-2-(3,3-dimethylbutyl)-N-(6-(2,3,5-trifluorophenyl)pyridazin-3-yl)octahydrocyclopenta[c]pyrrol-5-amine], the “Human M4 Emin” value was 3% and the pIC50 was 7.49.
For the compound `CC1(O)CC(CN2C[C@H]3C[C@H](Nc4ccc(-c5cc(F)cc(F)c5F)nn4)C[C@H]3C2)C1` (stereo partly shown) [Compound 52], the “Human M4 Emin” value was 3% and the pIC50 was 7.77.
For `CC(C)(C)OCCN1C[C@H]2C[C@H](Nc3ccc(-c4cc(F)cc(F)c4F)nn3)C[C@H]2C1` [Compound 53, (3aR,5s,6aS)-2-(2-(tert-butoxy)ethyl)-N-(6-(2,3,5-trifluorophenyl)pyridazin-3-yl)octahydrocyclopenta[c]pyrrol-5-amine], in that order: 3% and 8.59.
